By AC50 is commonly meant the concentration at which the activity in the assay is half-maximal.

Molecules are shown by their SMILES. Calls of active or inactive are those of the source.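 Rule for the calls: active = signal decrease with fitted half-maximal dose at or below ten times the highest valid tested dose; inconclusive = poor fit, or flat fit at 30 to 70% inhibition; inactive = the rest.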

The target in one assay is Zinc finger protein mex-5 (Caenorhabditis elegans) (UniProt Q9XUB2). Nature of the assay: inhibitors of MEX-5 RNA binding, dose response, biochemical, fluorescence polarization, C. elegans, cherry-picked, round 3 (AID 493250). The settings on record: purified MEX-5-MBP, FITC-TCR2 RNA fluorescence polarization. In general terms: In fluorescence polarisation assays a small probe gives low polarisation when free and higher when bound to something large.
Sequence of Zinc finger protein mex-5 (Caenorhabditis elegans) (Q9XUB2 whole entry, looked up): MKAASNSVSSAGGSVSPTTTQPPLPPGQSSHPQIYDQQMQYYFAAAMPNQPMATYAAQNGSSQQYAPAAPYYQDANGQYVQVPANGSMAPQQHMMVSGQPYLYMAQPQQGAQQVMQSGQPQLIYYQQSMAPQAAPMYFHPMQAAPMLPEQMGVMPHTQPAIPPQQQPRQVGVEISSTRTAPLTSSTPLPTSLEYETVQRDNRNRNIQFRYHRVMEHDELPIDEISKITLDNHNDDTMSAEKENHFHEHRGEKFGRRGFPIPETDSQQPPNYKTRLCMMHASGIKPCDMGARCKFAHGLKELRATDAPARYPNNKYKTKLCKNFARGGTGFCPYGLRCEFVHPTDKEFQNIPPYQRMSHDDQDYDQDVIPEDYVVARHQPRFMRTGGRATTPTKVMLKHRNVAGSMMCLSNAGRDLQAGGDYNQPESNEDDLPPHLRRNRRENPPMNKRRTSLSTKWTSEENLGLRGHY
Regarding `CNC(=O)c1sc(N2N=C3/C(=C/c4ccccc4)CCCC3C2c2ccccc2)nc1C` (centres undefined), the concentration at half-maximal activity (AC50) is 7.59 µM.

Consider `CCC(=O)Oc1ccc2c(c1)O/C(=C\c1ccco1)C2=O`, for which the AC50 is 5.51 µM.

For the molecule `O=[N+]([O-])c1ccccc1NC(=S)N/N=C/c1ccc(O)c(O)c1`, the concentration at half-maximal activity (AC50) was 10.4 µM.

On to `CCN1/C(=C/C=C/c2oc3ccc(-c4ccccc4)cc3[n+]2CC)Oc2ccc(-c3ccccc3)cc21`, for which the AC50 is 0.338 µM.

Regarding `Cc1cccc2c(N=Nc3ccccc3)c(O)[nH]c12`, the AC50 was > 10 µM (inactive).

Still in this assay, the particulars now being: purified MEX-5-MBP, FITC-TCR2 RNA fluorescence polarization; at 10 µM (top of the series).
On to `CN1CCc2c(sc(NC(=O)c3ccc(S(=O)(=O)N4CCCC4)cc3)c2C(N)=O)C1`, for which the “activity change, negative = inhibition” value was “inactive”.

For the molecule `CCCc1nc2ccccc2c(=O)n1/N=C/c1ccc(O)c(O)c1`, the “activity change, negative = inhibition” value is “inactive”.

As for `Cc1cc(=O)n2[nH]c(N)c(N=Nc3ccccc3F)c2n1`, the “activity change, negative = inhibition” value is “inactive”.

On to `O=c1nc(-c2ccccc2)c2cc(Br)ccc2[nH]1`, for which the “activity change, negative = inhibition” value is “inactive”.

For `N=C1C(c2nc3ccccc3[nH]2)=C(O)CN1c1ccccc1`, the “activity change, negative = inhibition” value is “inactive”.

In the case of `Cn1nc(C(=O)NNC(=O)c2ccc(Cl)cc2)ccc1=O`, the “activity change, negative = inhibition” value is “inactive”.

Regarding `NC1=NC(=O)/C(=C\c2ccc(O)c([N+](=O)[O-])c2)S1`, the “activity change, negative = inhibition” value is “inactive”.

Take `CN1CN(C)c2cccc3cccc1c23`: the “activity change, negative = inhibition” value is “inactive”.

Turning to `Cc1ccc(-c2cc(C(=O)Nc3ccc(S(=O)(=O)Nc4ncccn4)cc3)[nH]n2)c(O)c1C`, the “activity change, negative = inhibition” value was “inactive”.

Consider `CC1=Nc2ccccc2/C1=C\c1nc(-c2ccccc2)oc1O`, for which the “activity change, negative = inhibition” value was “inactive”.

Turning to `O=C(O)c1ccc(N2Cc3ccccc3C2)cc1O`, the “activity change, negative = inhibition” value is “inactive”.

As to `COc1cccc(NC(=S)NNC(=O)C(C)n2nc(C)c([N+](=O)[O-])c2C)c1` (centres undefined), the “activity change, negative = inhibition” value was “inactive”.

As for `COc1cc(/C=N/NC(=O)c2ccc(=O)[nH]n2)ccc1O`, the “activity change, negative = inhibition” value is “inactive”.

For `CN(N)c1ccc2c(C(F)(F)F)cc(C(F)(F)F)nc2n1`, the “activity change, negative = inhibition” value is “inactive”.

With `COC(=O)C1CSc2[nH]c(=O)sc2C1c1ccc(O)c(OC)c1` (centres undefined), the “activity change, negative = inhibition” value was “inactive”.

For `O=C(CSc1nnc(COc2ccccc2)o1)Nc1nccs1`, the “activity change, negative = inhibition” value was “inactive”.

Regarding `CCn1c(C)nc2c1C(=O)c1ccccc1C2=O`, the “activity change, negative = inhibition” value was “inactive”.

On to `O=C(CCc1ccccc1)N/N=C\c1cc2c(cc1Br)OCO2`, for which the “activity change, negative = inhibition” value is “inactive”.

In the case of `O=C(O)Cn1c(O)c(C2=c3ccccc3=NC2=O)sc1=O`, the “activity change, negative = inhibition” value was “inactive”.

Consider `Cc1nc2ccc(NC(=O)NC(=O)c3c(Cl)cccc3Cl)cc2o1`, for which the “activity change, negative = inhibition” value was “inactive”.

Turning to `Cc1ccc(C(=O)/C=C/c2ccccc2[N+](=O)[O-])cc1`, the “activity change, negative = inhibition” value is “inactive”.

For `Cn1c(CNC(=O)c2ccc(F)cc2)cc2ccccc21`, the “activity change, negative = inhibition” value is “inactive”.

Turning to `COc1cc(/C=C2\CCCc3c2nc2ccccc2c3C(=O)O)cc(OC)c1O`, the “activity change, negative = inhibition” value was “inactive”.

Turning to `C=CCc1cccc2cc(C(=O)NNC(=O)CC#N)c(=O)oc12`, the “activity change, negative = inhibition” value was “inactive”.

Take `Cc1cccc(/C=N/NC(=O)Cn2nnnc2N)n1`: the “activity change, negative = inhibition” value was “inactive”.

Regarding `NC1=C([N+](=O)[O-])C(c2ccc3c(c2)OCO3)C2=C(CCCC2=O)O1` (centres undefined), the “activity change, negative = inhibition” value was “inactive”.

For the molecule `O=C(NNC(=O)c1ccc(O)c(Cl)c1)c1cccc(S(=O)(=O)N2CCOCC2)c1`, the “activity change, negative = inhibition” value is “inactive”.

As to `COc1ccc(-c2cn[nH]c2-c2ccc(O)cc2O)cc1OC`, the “activity change, negative = inhibition” value was “inactive”.

With `CCC(COC(C)=O)Nc1nc2c([nH]1)c(=O)n(C)c(=O)n2C` (centres undefined), the “activity change, negative = inhibition” value is “inactive”.

Take `O=C1OC(C(=O)O)Cc2ccccc21` (centres undefined): the “activity change, negative = inhibition” value was “inactive”.

Take `COc1ccc(NCc2n[nH]c(=O)c3ccccc23)cc1`: the “activity change, negative = inhibition” value was “inactive”.

For `O=C(O)c1cccc(NC2=C(Cl)C(=O)c3ccccc3C2=O)c1`, the “activity change, negative = inhibition” value was “inactive”.

Consider `FC(F)(F)c1ccc(Cl)c(-n2c(-c3cc(-c4ccco4)[nH]n3)n[nH]c2=S)c1`, for which the “activity change, negative = inhibition” value is “inactive”.

As for `COC(=O)COc1ccc2c(c1)O/C(=C\c1cccc([N+](=O)[O-])c1)C2=O`, the “activity change, negative = inhibition” value is “inactive”.

Take `O=C(Nc1ccc(OCc2ccccc2)cc1)Nc1cccnc1`: the “activity change, negative = inhibition” value was “inactive”.

Regarding `O=C(O)c1ccc2cccnc2c1O`, the “activity change, negative = inhibition” value is “inactive”.

As to `O=C(O)c1[nH]c2ccccc2c1C(c1cc(Br)ccc1O)c1c(C(=O)O)[nH]c2ccccc12`, the “activity change, negative = inhibition” value was “inactive”.

Take `Cn1c(C2=C(O)CN(c3ccccc3)C2=N)nc2ccccc21`: the “activity change, negative = inhibition” value was “inactive”.

Regarding `Cn1ncc2c(NNC(=O)c3ccccc3Cl)ncnc21`, the “activity change, negative = inhibition” value is “inactive”.

With `CCOc1nc(-c2ccccc2)c2cc(Br)ccc2n1`, the “activity change, negative = inhibition” value is “inactive”.

On to `Cc1ccc(C(=O)N/C(=C\c2ccc(-c3ccccc3[N+](=O)[O-])o2)C(=O)NCCN(C)C)cc1`, for which the “activity change, negative = inhibition” value was “inactive”.

On to `Cc1cc(=O)oc(C)c1C(=O)Nc1c(C)n(C)n(-c2ccccc2)c1=O`, for which the “activity change, negative = inhibition” value is “inactive”.

For `O=C1S/C(=C\c2cccs2)C(=O)N1c1ccc(O)cc1`, the “activity change, negative = inhibition” value is “inactive”.

In the case of `Cc1c(Br)c(=O)oc2c(Br)c(O)c(O)cc12`, the “activity change, negative = inhibition” value is “inactive”.

For the molecule `COCc1cc(C)nc(N/N=C/c2ccc(-c3cc(C(=O)O)ccc3Cl)o2)c1C#N`, the “activity change, negative = inhibition” value was “inactive”.

With `O=C(NNC(=O)c1ccccc1[N+](=O)[O-])c1ccco1`, the “activity change, negative = inhibition” value is “inactive”.

On to `COC(=O)c1ccc(CC(=O)c2ccc(O)cc2O)o1`, for which the “activity change, negative = inhibition” value was “inactive”.

Consider `Cc1cccnc1Nc1nc(-c2ccc(O)cc2O)cs1`, for which the “activity change, negative = inhibition” value is “inactive”.

On to `CCOc1cc(/C=N/n2c(C)nc3ccccc3c2=O)ccc1O`, for which the “activity change, negative = inhibition” value is “inactive”.

As to `COc1ccc(OC)c(/C=C/C(=O)Nc2ccc(OC)nc2)c1`, the “activity change, negative = inhibition” value was “inactive”.

Regarding `O=C1N=c2ccccc2=C1c1sc(=S)n(NC(=O)c2ccccc2)c1O`, the “activity change, negative = inhibition” value is “inactive”.

As for `O=C1N=c2ccccc2=C1c1sc(=S)n(NC(=O)c2cccc(O)c2)c1O`, the “activity change, negative = inhibition” value is “inactive”.

For `CC(=O)NNc1ncnc2ccccc12`, the “activity change, negative = inhibition” value is “inactive”.

For the molecule `Cc1ccc(C)c(NC(=O)CCC(=O)NNC(=S)Nc2ccccc2)c1`, the “activity change, negative = inhibition” value was “inactive”.

As to `O=C(NNc1ccccc1)C(=O)NNS(=O)(=O)c1ccc(CCCl)cc1`, the “activity change, negative = inhibition” value was “inactive”.

Turning to `O=S(=O)(O)c1nc2ccccc2n1Cc1ccc(Cl)cc1Cl`, the “activity change, negative = inhibition” value is “inactive”.

As for `COc1ccc(NC(=O)/C=C/c2cccc(C(F)(F)F)c2)cn1`, the “activity change, negative = inhibition” value was “inactive”.

For the molecule `O=c1[nH]nc(CNc2ccc(OC(F)(F)F)cc2)c2ccccc12`, the “activity change, negative = inhibition” value was “inactive”.

Take `COc1cc(/C=N/NC(=O)CNS(=O)(=O)c2ccc(C)cc2)cc(OC)c1OC`: the “activity change, negative = inhibition” value was “inactive”.

The record behind these values is PubChem BioAssay AID493250 (Broad Institute, 2011).
